Earlier results in patent US5574044A, “Muscarine antagonists” (Merck & Co., Inc., priority 1994, dated 1996).

Legend:
[1] = tested on: smooth muscle (M3 type) receptor; details: ordinarily called M3 type but variously called type M2 or M3
[2] = tested on: eye; details: in vivo
[3] = tested on: pupil; details: in vivo
[4] = tested on: ciliary muscle; details: in vivo
[5] = in vivo
[6] = tested on: muscarinic receptors

SMILES | selectivity for smooth muscle (M3 type) receptor [1] | axial elongation / enlargement of the eye [2] | pupil dilation [3] | action on the ciliary muscle / ocular focusing [4] | sensitization assays [5] | muscarinic selectivity and duration [6]
C[N+]1(C)CCC(OC(=O)C(c2ccccc2)c2ccccc2)CC1 [Example 4-DAMP, 4-diphenylacetoxy-N-methylpiperadine methiodide] | relatively selective antagonist for smooth muscle | – | – | – | – | –
CN1CCc2cccc3c2[C@H]1Cc1ccc(O)c(O)c1-3 [apomorphine] | – | inhibit or actually prevent the axial enlargement of the eye | – | – | – | –
CN1[C@@H]2CC[C@H]1C[C@@H](OC(=O)C(CO)c1ccccc1)C2 (stereo partly drawn) [atropine] | – | – | causes mydriases (increase of pupil size) | its action on the ciliary muscle to inhibit ocular focusing impairs near visual work like reading | test positive in sensitization assays | long-acting non-specific antimuscarinic agent
CN1CCN(CC(=O)N2c3ccccc3C(=O)Nc3cccnc32)CC1 [pirenzepine] | – | inhibits axial elongation | far less effective at pupil dilation than atropine | – | test positive in sensitization assays | –
